Source: patent publication US8071768B2, “Alkylquinoline and alkylquinazoline kinase modulators” (Janssen Pharmaceutica, N.V., priority 2005, dated 2011)

Molecular target: T1, TrkB (Homo sapiens, UniProt Q16620)
T1 construct: purchased Upstate 14-507M
Experiment: Trk B Fluorescence Polarization Kinase Assay
Type: biochemical
Conditions: uncertainty ±10%
Experimental: Trk B Fluorescence Polarization Kinase Assay (TrkB IC50 Data)
The compounds of the present invention are also specific inhibitors of TrkB. Selection of preferred compounds of Formula I for use as TrkB inhibitors was performed in the following manner. The TrkB assay utilized the fluorescein-labeled phosphopeptide and the anti-phosphotyrosine antibody included in the Panvera Phospho-Tyrosine Kinase Kit (Green) supplied by Invitrogen. When TrkB phosphorylated poly Glu4Tyr, the fluorescein-labeled phosphopeptide was displaced from the anti-phosphotyrosine antibody by the phosphorylated poly Glu4Tyr, thus decreasing the FP value. The TrkB kinase reaction was incubated at room temperature for 30 minutes under the following conditions: 50 nM TrkB (Upstate, catalog # 14-507M), 20 ug/mL poly Glu4Tyr, 150 uM ATP, 5 mM MgCl2, 1% compound in DMSO. The kinase reaction was stopped with the addition of EDTA. The fluorescein-labeled phosphopeptide and the anti-phosphotyrosine antibody were added and incubated for 30 minutes at room temperature. Data points were an average of triplicate samples. Inhibition and IC50 data analysis were done with GraphPad Prism using a non-linear regression fit with a multiparamater, sigmoidal dose-response (variable slope) equation.

T1 sequence (Q16620 32-822): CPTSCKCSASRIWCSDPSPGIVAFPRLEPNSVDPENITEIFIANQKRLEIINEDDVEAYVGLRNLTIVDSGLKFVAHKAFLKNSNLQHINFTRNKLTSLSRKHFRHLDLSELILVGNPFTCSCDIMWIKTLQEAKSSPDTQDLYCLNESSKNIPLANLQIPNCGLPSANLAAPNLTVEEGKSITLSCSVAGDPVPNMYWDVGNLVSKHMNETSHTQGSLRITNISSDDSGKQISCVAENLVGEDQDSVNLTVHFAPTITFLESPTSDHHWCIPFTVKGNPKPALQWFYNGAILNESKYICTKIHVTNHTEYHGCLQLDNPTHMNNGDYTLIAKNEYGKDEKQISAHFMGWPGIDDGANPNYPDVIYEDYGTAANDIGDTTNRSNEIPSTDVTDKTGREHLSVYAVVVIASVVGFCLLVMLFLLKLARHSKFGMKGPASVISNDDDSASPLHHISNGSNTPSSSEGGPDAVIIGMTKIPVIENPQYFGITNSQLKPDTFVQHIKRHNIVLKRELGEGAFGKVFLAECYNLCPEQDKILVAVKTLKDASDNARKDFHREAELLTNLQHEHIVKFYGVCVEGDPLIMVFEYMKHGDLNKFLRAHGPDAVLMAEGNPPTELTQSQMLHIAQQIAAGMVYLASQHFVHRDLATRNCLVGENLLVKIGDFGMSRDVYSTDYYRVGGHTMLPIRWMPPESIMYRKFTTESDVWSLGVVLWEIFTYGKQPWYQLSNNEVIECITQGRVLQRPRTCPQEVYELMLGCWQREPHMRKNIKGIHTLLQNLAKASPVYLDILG

IC50 [µM]	Structure (SMILES)
0.1	COc1cc2ncnc(C3CCN(C(=O)Cc4ccc(C(C)C)cc4)CC3)c2cc1OC [Compound 28, 1-[4-(6,7-Dimethoxy-quinazolin-4-yl)-piperidin-1-yl]-2-(4-isopropyl-phenyl)-ethanone]
0.7	CC(C)c1ccc(NC(=O)N2CCC(c3ncnc4cc(Cl)ccc34)CC2)cc1 [Compound 30, 4-(7-Chloro-quinazolin-4-yl)-piperidine-1-carboxylic acid (4-isopropyl-phenyl)-amide]
5.4	CN1CCC(COc2ccc3c(C4CCN(C(=O)Nc5ccc(N6CCOCC6)nc5)CC4)ncnc3c2)CC1 [Compound 108, 4-[7-(1-Methyl-piperidin-4-ylmethoxy)-quinazolin-4-yl]-piperidine-1-carboxylic acid (6-morpholin-4-yl-pyridin-3-yl)-amide]
> 42	COC[C@H]1CCCN1c1ccc2c(C3CCN(C(=O)Nc4ccc(N5CCOCC5)cc4)CC3)ncnc2c1 [Compound 130, (R)-4-[7-(2-Methoxymethyl-pyrrolidin-1-yl)-quinazolin-4-yl]-piperidine-1-carboxylic acid (4-morpholin-4-yl-phenyl)-amide]
37.8	COc1cc2ncnc(C3CCN(C(=O)Nc4ccc(C5CCNCC5)cc4)CC3)c2cc1OC [Compound 64, 4-(6,7-Dimethoxy-quinazolin-4-yl)-piperidine-1-carboxylic acid (4-piperidin-4-yl-phenyl)-amide]
0.6	CCN(CC)CCCOc1ccc2c(C3CCN(C(=O)Nc4ccc(OC(C)C)cc4)CC3)ncnc2c1 [Compound 36, 4-[7-(3-Diethylamino-propoxy)-quinazolin-4-yl)-piperidine-1-carboxylic acid (4-isopropoxy-phenyl)-amide]
> 42	COc1cc2ncnc(C3CCN(C(=O)Nc4ccc(-n5ccnc5)cc4)CC3)c2cc1OC [Compound 3, 4-(6,7-Dimethoxy-quinazolin-4-yl)-piperidine-1-carboxylic acid (4-imidazol-1-yl-phenyl)-amide]
> 42	O=C(Nc1ccc(N2CCOCC2)cc1)N1CCC(c2ncnc3cc(OCCCN4CCOCC4)ccc23)CC1 [Compound 133, 4-[7-(3-Morpholin-4-yl-propoxy)-quinazolin-4-yl]-piperidine-1-carboxylic acid (4-morpholin-4-yl-phenyl)-amide]
> 42	CCN1CCN(c2ccc3c(C4CCN(C(=O)Nc5ccc(N6CCOCC6)cc5)CC4)ncnc3c2)CC1 [Compound 136, 4-[7-(4-Ethyl-piperazin-1-yl)-quinazolin-4-yl]-piperidine-1-carboxylic acid (4-morpholin-4-yl-phenyl)-amide]
> 20	CN1CCCN(CCCOc2ccc3c(C4CCN(C(=O)Nc5ccc(N6CCOCC6)cc5)CC4)ncnc3c2)CC1 [Compound 125, 4-{7-[3-(4-Methyl-[1,4]diazepan-1-yl)-propoxy]-quinazolin-4-yl}-piperidine-1-carboxylic acid (4-morpholin-4-yl-phenyl)-amide]
3.3	CC(C)c1ccc(NC(=O)N2CCC(c3ncnc4ccccc34)CC2)cc1 [Compound 7, 4-Quinazolin-4-yl-piperidine-1-carboxylic acid (4-isopropyl-phenyl)-amide]
3.11	O=C(Nc1ccc(N2CCCC2)cc1)N1CCC(c2ncnc3cc(N4CC[C@H](O)C4)ccc23)CC1 [Compound 129, (S)-4-[7-(3-Hydroxy-pyrrolidin-1-yl)-quinazolin-4-yl]-piperidine-1-carboxylic acid (4-pyrrolidin-1-yl-phenyl)-amide]
0.7	CC(C)c1ccc(NC(=O)N2CCC(c3ccnc4ccccc34)CC2)cc1 [Compound 5, 4-Quinolin-4-yl-piperidine-1-carboxylic acid (4-isopropyl-phenyl)-amide]
0.2	CN1CCN(CCCOc2ccc3c(C4CCN(C(=O)Nc5cnc(N6CCCC6)nc5)CC4)ncnc3c2)CC1 [Compound 105, 4-{7-[3-(4-Methyl-piperazin-1-yl)-propoxy]-quinazolin-4-yl}-piperidine-1-carboxylic acid (2-pyrrolidin-1-yl-pyrimidin-5-yl)-amide]
9.4	COc1cc2ncnc(C3CCN(C(=O)Nc4ccc(N(C)C)cc4)CC3)c2cc1OC [Compound 26, 4-(6,7-Dimethoxy-quinazolin-4-yl)-piperidine-1-carboxylic acid (4-dimethylamino-phenyl)-amide]
> 42	CC(=O)N1CC[C@@H](Oc2ccc3c(C4CCN(C(=O)Nc5ccc(N6CCCC6)cc5)CC4)ncnc3c2)C1 [Compound 154, (R)-4-[7-(1-Acetyl-pyrrolidin-3-yloxy)-quinazolin-4-yl]-piperidine-1-carboxylic acid (4-pyrrolidin-1-yl-phenyl)-amide]

IC50 [µM]	Structure (SMILES)
1.2	CCC(C)c1ccc(NC(=O)N2CCC(c3ncnc4cc(OC)c(OC)cc34)CC2)cc1 (centres unmarked) [Compound 52, 4-(6,7-Dimethoxy-quinazolin-4-yl)-piperidine-1-carboxylic acid (4-sec-butyl-phenyl)-amide]
5.31	CC(C)Oc1ccc(NC(=O)N2CCC(c3ncnc4ccc(N5CCN(C)CC5)cc34)CC2)cc1 [Compound 131, 4-[6-(4-Methyl-piperazin-1-yl)-quinazolin-4-yl]-piperidine-1-carboxylic acid (4-isopropoxy-phenyl)-amide]
6.1	COc1cc2ncnc(C3CCN(C(=O)Nc4ccc(N5CCCCC5)c(Cl)c4)CC3)c2cc1OC [Compound 71, 4-(6,7-Dimethoxy-quinazolin-4-yl)-piperidine-1-carboxylic acid (3-chloro-4-piperidin-1-yl-phenyl)-amide]
8.1	COc1cc2ncnc(C3CCN(C(=O)Nc4ccc(-c5ccc(Cl)nc5)cc4)CC3)c2cc1OC [Compound 60, 4-(6,7-Dimethoxy-quinazolin-4-yl)-piperidine-1-carboxylic acid [4-(6-chloro-pyridin-3-yl)-phenyl]-amide]
17.7	COc1cc2ncnc(C3CCN(C(=O)Nc4ccc(CO)cc4)CC3)c2cc1OC [Compound 22, 4-(6,7-Dimethoxy-quinazolin-4-yl)-piperidine-1-carboxylic acid (4-hydroxymethyl-phenyl)-amide]
13.6	CN1CCC(Oc2ccc3c(C4CCN(C(=O)Nc5ccc(N6CCOCC6)cc5)CC4)ncnc3c2)CC1 [Compound 127, 4-[7-(1-Methyl-piperidin-4-yloxy)-quinazolin-4-yl]-piperidine-1-carboxylic acid (4-morpholin-4-yl-phenyl)-amide]
> 42	CCN(CC)CCCOc1ccc2c(C3CCN(C(=O)Nc4ccc(N5CCOCC5)cc4)CC3)ncnc2c1 [Compound 134, 4-[7-(3-Diethylamino-propoxy)-quinazolin-4-yl]-piperidine-1-carboxylic acid (4-morpholin-4-yl-phenyl)-amide]
0.5	COc1ccc2c(C3CCN(C(=O)Nc4ccc(C(C)C)cc4)CC3)ncnc2c1 [Compound 32, 4-(7-Methoxy-quinazolin-4-yl)-piperidine-1-carboxylic acid (4-isopropyl-phenyl)-amide]
> 42	CN1CCC[C@H]1COc1ccc2c(C3CCN(C(=O)Nc4ccc(N5CCCC5)cc4)CC3)ncnc2c1 [Compound 151, (S)-4-[7-(1-Methyl-pyrrolidin-2-ylmethoxy)-quinazolin-4-yl]-piperidine-1-carboxylic acid (4-pyrrolidin-1-yl-phenyl)-amide]
13.9	COc1cc2ncnc(C3CCN(C(=O)Nc4ccc(-c5ccco5)cc4)CC3)c2cc1OC [Compound 59, 4-(6,7-Dimethoxy-quinazolin-4-yl)-piperidine-1-carboxylic acid (4-furan-2-yl-phenyl)-amide]
1.3	CCN(CC)CC#Cc1ccc2ncnc(C3CCN(C(=O)Nc4ccc(OC(C)C)cc4)CC3)c2c1 [Compound 13, 4-[6-(3-Diethylamino-prop-1-ynyl)-quinazolin-4-yl]-piperidine-1-carboxylic acid (4-isopropoxy-phenyl)-amide]
6.5	COc1cc2ncnc(C3CCN(C(=O)Nc4ccccc4)CC3)c2cc1OC [Compound 45, 4-(6,7-Dimethoxy-quinazolin-4-yl)-piperidine-1-carboxylic acid phenylamide]
11.7	COc1ccc(NC(=O)N2CCC(c3ncnc4cc(OC)c(OC)cc34)CC2)cc1 [Compound 41, 4-(6,7-Dimethoxy-quinazolin-4-yl)-piperidine-1-carboxylic acid (4-methoxy-phenyl)-amide]
7.05	CN1CCN(CCOc2ccc3c(C4CCN(C(=O)Nc5ccc(N6CCCC6)cc5)CC4)ncnc3c2)CC1 [Compound 157, 4-{7-[2-(4-Methyl-piperazin-1-yl)-ethoxy]-quinazolin-4-yl}-piperidine-1-carboxylic acid (4-pyrrolidin-1-yl-phenyl)-amide]
2.7	COc1cc2ncnc(C3CCN(C(=O)Nc4ccc(N5CCCCCC5)cc4)CC3)c2cc1OC [Compound 70, 4-(6,7-Dimethoxy-quinazolin-4-yl)-piperidine-1-carboxylic acid (4-azepan-1-yl-phenyl)-amide]

Structure (SMILES)	IC50 [µM]
CN1CCC(COc2ccc3c(C4CCN(C(=O)Nc5ccc(OC6CCC6)nc5)CC4)ncnc3c2)CC1 [Compound 107, 4-[7-(1-Methyl-piperidin-4-ylmethoxy)-quinazolin-4-yl]-piperidine-1-carboxylic acid (6-cyclobutoxy-pyridin-3-yl)-amide]	0.2
